Assay results taken from ChEMBL document CHEMBL3832074, “DailyMed|setid=ad6a2b73-29d4-4ced-ba42-4c2ad1c5a1af | ENTACAPONE - entacapone tablet, film coated|Sun Pharma Global FZE”.

Columns and labels:
Assay type in all cases: ADME, organism-based
Homo sapiens [1] = assay: Pharmcokinetic parameters for Enctacpone following oral administration of Entacapone.; settings: in vivo, dosed compound id 40, dosed compound name ENTACAPONE; for Excretion: po
[2] = (§1) Pharmacokinetic parameters for Enctacpone after single oral administartion of 200 and 800 mg Entacapone tablets to volunteers.; parameters: dose 200 mg, route oral; settings: human, in vivo, 200 mg, dosed compound id 40, dosed compound name ENTACAPONE, regimen Single dose, tissue Plasma
Homo sapiens [3] = assay: as §1; parameters: dose 200 mg, route oral; settings: in vivo, dosed compound id 40, dosed compound name ENTACAPONE, gender male and female, regimen Single dose, route oral, tissue Plasma

CL (Homo sapiens [1]; route iv, tissue Plasma): 850 mL/min
Excretion (Homo sapiens [1]; tissue Feces): 90%
Excretion (Homo sapiens [1]; tissue Urine): 10%
Cmax [2]: 1200 ng/mL
Inhibition (Homo sapiens [3]; at 200 mg): 65%
Inhibition (Homo sapiens [3]; at 800 mg): 82%
SMILES: CCN(CC)C(=O)/C(C#N)=C/c1cc(O)c(O)c([N+](=O)[O-])c1 [ENTACAPONE]
